Here are results for 2 compounds from US8604042B2, “Bi-aryl meta-pyrimidine inhibitors of kinases” (TargeGen, Inc., priority 2005, dated 2013).

In series [1] the test system is bleomycin induced dermal fibrosis. Put plainly: Mouse model of bleomycin induced dermal fibrosis. Conditions: low dose (30 mg/kg, bid) and high dose (100 mg/kg, bid). It counts as in vivo. Here is the method: In vivo studies using compound CLXII were conducted in a mouse model of bleomycin induced dermal fibrosis. FIG. 41 indicates the results of administering a low dose (30 mg/kg, bid) and a high dose (100 mg/kg, bid) of CLXII.

For series [2], the system named is fibroblasts from sclerotic patients and healthy fibroblasts. Put plainly: Extracellular matrix protein production in fibroblasts (real-time PCR). The format is cell-based, human. The protocol:
An in-vitro study was conducted using compound CLXII to examine the production of extracellular matrix proteins responsible for fibrosis in fibroblasts from sclerotic patients and healthy fibroblasts.

The next series relates to parental Ba/F3 cells. Put plainly: Growth of parental Ba/F3 cells. Conditions: Mus musculus, BaF3; data not shown. The format is cell-based. The source says:
(§1) […]. data not shown), reflecting their dependence on signaling by wild type JAK2. […].

Another series has as its system STAT5 phosphorylation. Put plainly: STAT5 phosphorylation in Ba/F3-V617F cells. It counts as cell-based. Conditions: data not shown. The protocol: Protein concentration was determined using the BCA method (Pierce, Rockford, Ill.) and 100 μg of total cellular protein of each sample in 1× Laemmli buffer were subjected to Western blot analysis. The protein blot was probed with an anti-phospho-STAT5 (Tyr694/699) (Upstate Biotechnology, Charlottesville, Va.), subsequently stripped and re-probed with an anti-STAT5 antibody (Cell Signaling Technology, Danvers, Mass.). The phospho-STAT5 or STAT5 protein was visualized by the enhanced chemoluminescence method (Pierce). In vivo signaling studies were done in a similar fashion. […] Spleens were harvested 7 h after dosing and quickly homogenized in a FastPrep machine (Qbiogen, Irvine, Calif.). 100 μg of each spleen homogenate were subjected to Western blot analysis. The protein […] anti-phospho-STAT5 (Tyr694/699) (Upstate Biotechnology, Charlottesville, Va.), subsequently stripped and re-probed with an anti-STAT5 antibody (Cell Signaling Technology, Danvers, Mass.). The phospho-STAT5 or STAT5 protein was visualized by the enhanced chemoluminescence method (Pierce). In vivo signaling studies were done in a similar fashion. […] Spleens were harvested 7 h after dosing and quickly homogenized in a FastPrep machine (Qbiogen, Irvine, Calif.). 100 μg of each spleen homogenate were subjected to Western blot analysis. […]

Another series concerns CTLL-2 cells. Put plainly: IL-2-induced JAK3-dependent proliferation of CTLL-2 cells. The format is cell-based. Conditions: Mus musculus. The protocol: (§2) HEL, CTLL-2 & normal human dermal fibroblasts (NHDF) were from the American Tissue Culture Collection Rockville, Md.). BaF/3 cells were obtained from DKFZ Cancer Research Center (Heidelberg, Germany).
(§3) BaF/3, HEL & NHDF cells were grown in RPMI 1640 medium (Gibco BRL, Gaithersburg, Md.) supplemented with penicillin, streptomycin, L-glutamine, and 10% fetal bovine serum (FBS). CTLL-2 cells were grown in the same media further supplemented with 20 U/mL recombinant IL-2 (Hoffmann-LaRoche, Nutley, N.J.). Plasmid containing the human JAK2 coding sequence was purchased from Invitrogen (Madison, Wis.). JAK2^V617F cDNA was generated by using site-directed mutagenesis to introduce the V617F mutation into the human JAK2 coding sequence followed by verification using two-directional sequencing. […]
(§4) Cell proliferation assay was performed using the XTT cell proliferation kit according to the manufacturer's instructions (Roche, Alameda, Calif.). […] The colored formazan product that is formed was measured spectrophotometrically using the Vmax spectrophotometer (Molecular Devices, Sunnyvale, Calif.) at 450 nm with correction at 650 nm. IC50 values were determined using the GraphPad Prism 4.0 software (San Diego, Calif.), wherefore OD values were plotted on y-axis (linear scale) and concentration (mM) on the x-axis (log scale).

A further series concerns BCR-ABL+K562 cells. Put plainly: Growth of K562 cells. It counts as cell-based. Conditions: Homo sapiens, control experiments.
Description: as §1

For a further series, the system named is HEL cells. Put plainly: XTT cell proliferation assay, HEL cells. The format is cell-based. Conditions: Homo sapiens.
For series [3], the system named is phospho-JAK2V617F, phospho-STAT5, phospho-STAT3. Put plainly: Phosphorylation of JAK2V617F, STAT5 and STAT3 in HEL cells. The format is cell-based. Conditions: Homo sapiens, read-out: IC50, levels of phospho-JAK2V617F, phospho-STAT5, phospho-STAT3.
For series [4], the system named is BaF/3 cells expressing JAK2^V617F and GFP. Put plainly: JAK2V617F-driven circulating tumor model in SCID mice. The format is in vivo, mouse. Conditions: oral 10, 30 or 100 mg/kg; day 11; FACS, GFP positive cells.
The test system of series [5] is normal human dermal fibroblasts (NHDF). Put plainly: XTT cell proliferation assay, normal human dermal fibroblast control. It counts as cell-based. Conditions: Control data: Normal human dermal fibroblast control. Here is the method:
as §2, §3, §4
In general terms: Tetrazolium assays rely on reduction of a dye to a coloured formazan, in cell work by metabolically active cells.

Each structure is given as a SMILES string. Entries after “also recorded” stand apart in the source; their conditions may differ.

Turning to `Cc1ccc(Nc2nc(Nc3ccc(N4CCN(C)CC4)cc3)ncc2C)cc1C` [CLXII], in series [1], the “bleomycin induced dermal fibrosis” value is “prevention of bleomycin induced dermal fibrosis”. In [2] (real-time PCR, 5% FCS, sclerotic vs normal fibroblasts), the “basal synthesis of collagen 1a1” value is “inhibition of basal synthesis of collagen 1a1 in sclerotic fibroblasts, but not normal, fibroblasts; also recorded: inhibition of basal synthesis of collagen 1a1 in sclerotic, but not normal, fibroblasts”. In series [2] (sclerotic or normal fibroblasts), the “basal synthesis of fibronectin 1” value is “dose not inhibit basal synthesis of fibronection-1 in either sclerotic or normal fibroblasts”. In addition, the “basal synthesis of collagen 1a2” value in series [2] (sclerotic vs normal fibroblasts) was “some inhibition of basal synthesis of collagen 1a2 in sclerotic fibroblasts, but not normal, fibroblasts”.
`Cc1cnc(Nc2ccc(N3CCN(C)CC3)cc2)nc1Nc1cccc(S(=O)(=O)NC(C)(C)C)c1` [XLV]: the half-maximal inhibitory concentration (IC50) is 470 nM with parental Ba/F3 cells; 300 nM in the series with STAT5 phosphorylation; 3.4 µM in the series with CTLL-2 cells (IL-2 dependent cytotoxic T-cells, FIG. 32B, read-out: IC50, growth of CTLL-2 cells); 1000 nM with BCR-ABL+K562 cells; 300 nM in the series with HEL cells (homozygous for the JAK2V617F allele, FIG. 32C, read-out: IC50, HEL cells); 300 to 600 nM in series [3]. The EC50 with CTLL-2 cells (Control data: IL-2-induced JAK3-dependent proliferation) was 3.4 µM; in the series with HEL cells (XTT, 72 hour incubation), 270 nM; in series [5], 6.49 µM. The “number of circulating JAK2^V617F tumor cells” value in series [4] was “reduces the number of circulating JAK2^V617F tumor cells in a dose-dependent manner”.

In general, IC50 refers to the concentration at which inhibition is half-maximal. For orientation: EC50 means the concentration at which the effect is half-maximal.
